# Reference: patent US20170304388A1, “NEW INDICATION OF CARDIOVASCULAR DRUGS FOR PREPARATION OF CANCER INHIBITION PHARMACEUTICAL COMPOSITION” (LAUNX BIOMEDICAL CO., LTD., priority 2014, published 2017)
# Legend:
# Assay type in all cases: cell-based
# [1] = system: A375 (Amelanotic Melanoma); assay: Cell viability analysis (WST-1), A375; conditions: Homo sapiens, A-375, 72 h, Table 4, repeated experiments, drug 10 μM, WST-1, read-out: survival rate (viability) of cancer cells, A375
# [2] = system: HCT116 (Colorectal Carcinoma); assay: Cell viability analysis (WST-1), HCT116; conditions: Homo sapiens, HCT-116, 72 h, Table 4, repeated experiments, drug 10 μM, WST-1, read-out: survival rate (viability) of cancer cells, HCT116
# [3] = system: HepG2 (Hepatocellular Carcinoma); assay: Cell viability analysis (WST-1), HepG2; conditions: Homo sapiens, HepG2, 72 h, Table 4, repeated experiments, drug 10 μM, WST-1, read-out: survival rate (viability) of cancer cells, HepG2
# [4] = system: HeLa (Cervix Adenocarcinoma); assay: Cell viability analysis (WST-1), HeLa; conditions: Homo sapiens, HeLa, 72 h, Table 4, repeated experiments, drug 10 μM, WST-1, read-out: survival rate (viability) of cancer cells, HeLa
# [5] = system: AGS (Gastric Adenocarcinoma); assay: Cell viability analysis (WST-1), AGS; conditions: 72 h, Table 4, repeated experiments, drug 10 μM, WST-1, read-out: survival rate (viability) of cancer cells, AGS
# [6] = system: H1650 (Lung Adenocarcinoma); assay: Cell viability analysis (WST-1), H1650; conditions: Homo sapiens, NCI-H1650, 72 h, Table 4, repeated experiments, drug 10 μM, WST-1, read-out: survival rate (viability) of cancer cells, H1650
# [7] = system: MKN-45 (Gastric Adenocarcinoma); assay: Cell viability analysis (WST-1), MKN-45; conditions: Homo sapiens, MKN-45, 72 h, Table 4, repeated experiments, drug 10 μM, WST-1, read-out: survival rate (viability) of cancer cells, MKN-45
# [8] = system: TSGH-8301 (Urinary Bladder Carcinoma); assay: Cell viability analysis (WST-1), TSGH-8301; conditions: 72 h, Table 4, repeated experiments, drug 10 μM, WST-1, read-out: survival rate (viability) of cancer cells, TSGH-8301
# [9] = system: A549 (Lung Adenocarcinoma); assay: Cell viability analysis (WST-1), A549; conditions: Homo sapiens, A549, 72 h, Table 4, repeated experiments, drug 10 μM, WST-1, read-out: survival rate (viability) of cancer cells, A549
# [10] = system: MCF7 (Mammary Gland, Adenocarcinoma); assay: Cell viability analysis (WST-1), MCF7; conditions: Homo sapiens, MCF7, 72 h, Table 4, repeated experiments, drug 10 μM, WST-1, read-out: survival rate (viability) of cancer cells, MCF-7
# [11] = system: PC3 (Prostate Adenocarcinoma); assay: Cell viability analysis (WST-1), PC3; conditions: 72 h, Table 4, repeated experiments, drug 10 μM, WST-1, read-out: survival rate (viability) of cancer cells, PC-3
# [12] = system: LoVo (Colorectal Adenocarcinoma); assay: Cell viability analysis (WST-1), LoVo; conditions: Homo sapiens, LoVo, 72 h, Table 4, repeated experiments, drug 10 μM, WST-1, read-out: survival rate (viability) of cancer cells, LoVo
# T24 = assay: Cell viability analysis (WST-1), T24; conditions: Homo sapiens, T-24, 72 h, Table 4, repeated experiments, drug 10 μM, read-out: survival rate (viability) of cancer cells, T24
# Protocol: (§1) Subculture the different types of cancer cells. The cancer cells includes lung cancer, gastric cancer, hepatic cancer, colon cancer, skin cancer, cervical cancer, prostate cancer, bladder cancer, breast cancer, leukemia, pancreatic cancer, ovarian cancer, tongue cancer, osteosarcoma, and renal cancer. The cell numbers were counted and reseed as 2×10^6 in cell culture plate/flask. Then, the culture medium for culturing the cell lines was added to a volume of 10 ml, and the cells were cultured for 2-3 days. Then, the cells were suspended for loading into 96-well plates. The cell number was 3000 cells and the volume of the culture medium was 100 ul each well.
# (§2) Removing the original culture medium from 96-well plate. Then add 100 μl of commercially drug at a concentration of 10 μM per well. After 72 hours, add the diluted WST-1 reagent to the well with 100 μl/well, and the diluted WST-1 reagent was acquired from the dilution of 9:1 medium and WST-1 stock reagent. Finally, the total volume of each well are 200 μl/well. Culture the 96-well plate at 37° C. for 30 to 90 minutes. Detecting and calculating the survival rate of each cancer cells with an ELISA reader at OD450 nm. The lower viability of cancer cells represents better inhibition effect via the drugs. Otherwise, the higher viability of cancer cells represents worse inhibition effect via the drugs.
# (§3) According to the above mentioned cardiovascular drugs for cancer growth inhibition in Table 3, the inventors took the repeat experiments for the cardiovascular drugs to check the growth inhibitory effects of cancer cells by the cardiovascular drugs. […] 4.
# Hep3B = assay: Cell viability analysis (WST-1), Hep3B; conditions: Homo sapiens, Hep3B, 72 h, Table 4, repeated experiments, drug 10 μM, read-out: survival rate (viability) of cancer cells, Hep3B
# Protocol: as §1, §2, §3
# C-33A = assay: Cell viability analysis (WST-1), C-33A; conditions: Homo sapiens, C-33-A, 72 h, Table 4, repeated experiments, drug 10 μM, read-out: survival rate (viability) of cancer cells, C-33A
# Protocol: as §1, §2, §3
# MDA-MB231 = assay: Cell viability analysis (WST-1), MDA-MB231; conditions: Homo sapiens, MDA-MB-231, 72 h, Table 4, repeated experiments, drug 10 μM, read-out: survival rate (viability) of cancer cells, MDA-MB231
# NIH-OVCAR-3 = assay: Cell viability analysis (WST-1), NIH-OVCAR-3; conditions: Homo sapiens, OVCAR-3, 72 h, Table 4, repeated experiments, drug 10 μM, read-out: survival rate (viability) of cancer cells, NIH-OVCAR-3
# Protocol: as §1, §2, §3
# TOV-21G = assay: Cell viability analysis (WST-1), TOV-21G; conditions: Homo sapiens, TOV21G, 72 h, Table 4, repeated experiments, drug 10 μM, read-out: survival rate (viability) of cancer cells, TOV-21G
# Protocol: as §1, §2, §3
# AsPC-1 = assay: Cell viability analysis (WST-1), AsPC-1; conditions: Homo sapiens, ASPC1, 72 h, Table 4, repeated experiments, drug 10 μM, read-out: survival rate (viability) of cancer cells, AsPC-1
# Protocol: as §1, §2, §3
# BxPC-3 = assay: Cell viability analysis (WST-1), BxPC-3; conditions: Homo sapiens, BXPC-3, 72 h, Table 4, repeated experiments, drug 10 μM, read-out: survival rate (viability) of cancer cells, BxPC-3
# Protocol: as §1, §2, §3
# SAS = assay: Cell viability analysis (WST-1), SAS; conditions: 72 h, Table 4, repeated experiments, drug 10 μM, read-out: survival rate (viability) of cancer cells, SAS
# Protocol: as §1, §2, §3
# U2OS = assay: Cell viability analysis (WST-1), U2OS; conditions: Homo sapiens, U2OS, 72 h, Table 4, repeated experiments, drug 10 μM, read-out: survival rate (viability) of cancer cells, U2OS
# Protocol: as §1, §2, §3
# BCC = assay: Cell viability analysis (WST-1), BCC; conditions: BCC, 72 h, Table 4, repeated experiments, drug 10 μM, read-out: survival rate (viability) of cancer cells, BCC
# 786-O = assay: Cell viability analysis (WST-1), 786-O; conditions: Homo sapiens, 786-0, 72 h, Table 4, repeated experiments, drug 10 μM, read-out: survival rate (viability) of cancer cells, 786-O
# Protocol: as §1, §2, §3
# cancer cell lines = assay: Growth inhibitory effects on the panel of cancer cell lines; conditions: drug 10 μM, 72 hours, WST-1
SMILES,viability at 10 µM [1],viability at 10 µM [2],viability at 10 µM [3],viability at 10 µM [4],viability at 10 µM [5],viability at 10 µM [6],viability at 10 µM [7],viability at 10 µM [8],viability at 10 µM [9],viability at 10 µM [10],viability at 10 µM [11],viability at 10 µM [12],viability at 10 µM (T24),viability at 10 µM (Hep3B),viability at 10 µM (C-33A),viability at 10 µM (MDA-MB231),viability at 10 µM (NIH-OVCAR-3),viability at 10 µM (TOV-21G),viability at 10 µM (AsPC-1),viability at 10 µM (BxPC-3),other results
CC(C)N(CCC(C(N)=O)(c1ccccc1)c1ccccn1)C(C)C (stereo not drawn) [Disopyramide Phosphate],114%,94%,109%,103%,95.9%,90.5%,111%,115%,99.4%,107%,103%,105%,87.6%,113%,98.5%,98.8%,103%,94.3%,77.2%,69.9%,viability at 10 µM (SAS): 96.9%; viability at 10 µM (U2OS): 98.7%; viability at 10 µM (BCC): 110%; viability at 10 µM (786-O): 102%; inhibition effect on different cancer cell lines (in words) (cancer cell lines): significant inhibition effect
"CCC[C@H](N[C@@H](C)C(=O)N1[C@H](C(=O)O)C[C@@H]2CCCC[C@@H]21)C(=O)OCC [Perindopril Erbumine (Aceon), Perindopril Erbumine]",83.2%,65%,99.4%,66.7%,87.1%,78.6%,73.8%,105%,71.9%,75.6%,81.1%,83.5%,87.9%,99.5%,90.9%,63.8%,79.6%,71.2%,64.2%,50%,viability at 10 µM (SAS): 52.5%; viability at 10 µM (U2OS): 74%; viability at 10 µM (BCC): 58.7%; viability at 10 µM (786-O): 86.2%; inhibition effect on different cancer cell lines (in words) (cancer cell lines): significant inhibition effect
COCCOC(=O)C1=C(C)NC(C)=C(C(=O)OC/C=C/c2ccccc2)C1c1cccc([N+](=O)[O-])c1 (stereo not drawn) [Cilnidipine],47.1%,88.6%,77.1%,64.3%,76.9%,69%,105%,95.9%,67.8%,64.6%,61.4%,53.7%,108%,92.7%,93%,86.3%,75.9%,62.9%,57.6%,68.7%,viability at 10 µM (SAS): 38.9%; viability at 10 µM (U2OS): 43.1%; viability at 10 µM (BCC): 60.2%; viability at 10 µM (786-O): 86.7%; inhibition effect on different cancer cell lines (in words) (cancer cell lines): significant inhibition effect
"COC(=O)C1=C(C)NC(C)=C(C(=O)OCC(C)C)C1c1ccccc1[N+](=O)[O-] (stereo not drawn) [Nisoldipine (Sular), Nisoldipine]",51.5%,77.4%,95.5%,76.9%,64.7%,70%,98%,77.9%,48.9%,86.6%,98.9%,76.9%,67.8%,130%,66%,74.1%,68.1%,44.4%,78.8%,75.6%,viability at 10 µM (SAS): 48.8%; viability at 10 µM (U2OS): 69.1%; viability at 10 µM (BCC): 58.8%; viability at 10 µM (786-O): 49.5%
"CC(C)n1c(/C=C/C(O)CC(O)CC(=O)O)c(-c2ccc(F)cc2)c2ccccc21 (stereo not drawn) [Fluvastatin sodium (Lescol), Fluvastatin sodium]",21.8%,55%,104%,54.3%,52%,73.1%,65.3%,78.2%,98.8%,82.5%,32.1%,100%,71.8%,109%,89.5%,43%,84.7%,50.5%,83.6%,79.1%,viability at 10 µM (SAS): 81.5%; viability at 10 µM (U2OS): 91.2%; viability at 10 µM (BCC): 27%; viability at 10 µM (786-O): 23.6%
